Measurements: patent US6824928B2, “Organic borate compounds and the nonaqueous electrolytes and lithium secondary batteries using the compounds” (Hitachi, Ltd., priority 2000, dated 2004)
Where two headings read alike, the source gives them in different places.

Assays:
[1] = Electroconductivity in fluorinated solvent B (HFE7100/DMC 80:20); type: physicochemical; conditions: for concentration at which maximum electroconductivity was obtained / maximum electroconductivity / electroconductivity (result in words): solvent B: HFE7100/DMC 80:20; for improvement of electroconductivity: solvent B, versus LiN (SO2CF3)2
[2] = 1 M in PC; platinum working electrode, lithium counter/reference; sweep 10 mV/sec
From the text: By use of these nonaqueous electrolytes, the respective oxidation decomposition potential values have been compared using the method described below.

[3] = for improvement of electroconductivity by factor: solvent A, versus lithium bis-salicylate borate (comparative example 1)
[4] = solvent B: HFE7100/DMC 80:20; salt dissolved to 0.1 M
[5] = 1 M in PC; versus comparative example 8

Compound | concentration at which maximum electroconductivity was obtained [1] | maximum electroconductivity [1] | potential from which significant changes in oxidation current are observed (oxidation decomposition potential) [2] | concentration at which maximum electroconductivity was obtained ([3]; solvent A: PC/DMC 1:2) | maximum electroconductivity ([3]; solvent A: PC/DMC 1:2) | improvement of electroconductivity by factor [3] | also measured
O=C(O[B-](OC(=O)C(F)(F)F)(OC(=O)C(F)(F)F)OC(=O)C(F)(F)F)C(F)(F)F.[Li+] [LB1, Lithium Tetrakis (Trifluoroacetate) Borate] | 0.8 M | 1.55 mS/cm | 6.7 V | 0.8 M | 7.8 mS/cm | up to 18 | improvement of electroconductivity [1]: 2.2 times
CC(=O)O[B-](OC(C)=O)(OC(C)=O)OC(C)=O.[Li+] [LB4, Lithium Tetrakis (Acetate) Borate] |  |  |  |  |  |  | electroconductivity of the nonaqueous electrolyte ([3]; solvent A: PC/DMC 1:2, at the dissolved concentration (about 0.1 M)): 0.02 mS/cm
F[B-](F)(F)F.[Li+] [LiBF4, lithium tetrafluoroborate, reference compound] |  |  |  |  |  |  | electroconductivity (result in words) [1]: no electroconductivity has been measurable; phase behaviour of the solution [4]: the phase of the solvent has separated into two layers
O=S(=O)([N-]S(=O)(=O)C(F)(F)F)C(F)(F)F.[Li+] [LiN (SO2CF3)2, lithium bis-(trifluoromethanesulfonyl)imide, reference compound] | 1 M | 0.69 mS/cm | 5.8 V |  |  |  | 
Lithium Tetrakis (Pentafluoropropanoate) Borate [LB2] | 0.6 M | 1.7 mS/cm | 6.5 V | 0.6 M | 5.8 mS/cm | up to 13.4 | improvement of electroconductivity [1]: 2.4 times
Lithium Tetrakis (Trichloroacetate) Borate [LB3] |  |  | 6.4 V | 0.5 M | 4.3 mS/cm | up to 10 | 
Tetraethyl Ammonium Tetrakis (Trifluoroacetate) Borate [AB1] |  |  |  |  |  |  | increase of potential window at the oxidation side [5]: 0.5 V
lithium bis-benzenediolate [reference compound] |  |  |  |  |  |  | electroconductivity (result in words) [1]: no electroconductivity has been measurable
